Patent US10745382B2 (BRISTOL-MYERS SQUIBB COMPANY, priority 2015, dated 2020)
Read-outs that look alike come from different tables or passages of the source.

Biological target: T1, PD-1/PD-L1 (Homo sapiens, UniProt Q9NZQ7)
T1 construct: made in house; host or cells: HEK293T
Test: PD-1/PD-L1 Homogenous Time-Resolved Fluorescence (HTRF) binding assay
Conditions: PD-L1-His 10 nM, PD-1-Ig 20 nM, read-out: Range or IC50
Summary of the method: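 Detection by europium cryptate anti-Ig plus APC anti-His (1 nM and 20 nM final) with HTRF signal. Buffer was dPBS, 0.1% BSA, 0.05% Tween-20.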

T1 sequence (Q9NZQ7 with tags, fused parts or gaps): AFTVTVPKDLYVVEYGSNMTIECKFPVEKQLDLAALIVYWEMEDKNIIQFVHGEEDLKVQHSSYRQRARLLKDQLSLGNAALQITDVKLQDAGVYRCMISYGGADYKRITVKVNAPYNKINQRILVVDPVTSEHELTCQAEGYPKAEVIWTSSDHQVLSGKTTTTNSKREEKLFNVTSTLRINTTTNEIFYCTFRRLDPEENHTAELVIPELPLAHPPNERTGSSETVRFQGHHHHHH

Row | SMILES | IC50 (value given as range class) [nM] | IC50 (numeric IC50) [nM]
1 | Cc1c(COc2cc(OCc3cncc(C#N)c3)c(CNC(CO)(CO)CO)cc2Cl)cccc1-c1cccc(C(=O)N2CCOCC2)c1C [Example 4058, 5-((4-chloro-2-(((1,3-dihydroxy-2-(hydroxymethyl)propan-2-yl)amino)methyl)-5-((2,2′-dimethyl-3′-(morpholine-4-carbonyl)-[1,1′-biphenyl]-3-yl)methoxy)phenoxy)methyl)nicotinonitrile] | 10 to 100 | –
2 | Cc1c(COc2cc(OCc3cncc(C#N)c3)c(CN[C@@H](CN)C(=O)O)cc2Cl)cccc1-c1cccc(C(=O)N2CCOCC2)c1C [Example 4059, (S)-3-amino-2-((5-chloro-2-((5-cyanopyridin-3-yl)methoxy)-4-((2,2′-dimethyl-3′-(morpholine-4-carbonyl)-[1,1′-biphenyl]-3-yl)methoxy)benzyl)amino)propanoic Acid] | 100 to 2000 | –
3 | Cc1c(COc2cc(OCc3cncc(C#N)c3)c(CN3CCNC[C@H]3C(=O)O)cc2Cl)cccc1-c1cccc(C(=O)N2CCOCC2)c1C [Example 4060, (S)-1-(5-chloro-2-((5-cyanopyridin-3-yl)methoxy)-4-((2,2′-dimethyl-3′-(morpholine-4-carbonyl)-[1,1′-biphenyl]-3-yl)methoxy)benzyl)piperazine-2-carboxylic Acid] | 100 to 2000 | –
4 | Cc1c(CCCCN2CC[C@@H](O)C2)cccc1-c1cccc(COc2cc(OCc3cncc(C#N)c3)c(CN3CCCC[C@H]3C(=O)O)cc2Cl)c1C [Example 4061, (S)-1-(5-chloro-2-((5-cyanopyridin-3-yl)methoxy)-4-((3′-(4-((R)-3-hydroxypyrrolidin-1-yl)butyl)-2,2′-dimethyl-[1,1′-biphenyl]-3-yl)methoxy)benzyl)piperidine-2-carboxylic Acid] | 0.21 to 10 | –
5 | Cc1c(CCCCN2CC[C@@H](O)C2)cccc1-c1cccc(COc2cc(OCc3cncc(C#N)c3)c(CN3C[C@H](O)C[C@H]3C(=O)O)cc2Cl)c1C [Example 4062, (2S,4R)-1-(5-chloro-2-((5-cyanopyridin-3-yl)methoxy)-4-((3′-(4-((R)-3-hydroxypyrrolidin-1-yl)butyl)-2,2′-dimethyl-[1,1′-biphenyl]-3-yl)methoxy)benzyl)-4-hydroxypyrrolidine-2-carboxylic Acid] | 0.21 to 10 | –
6 | Cc1c(CCCCN2CC[C@@H](O)C2)cccc1-c1cccc(COc2cc(OCc3cncc(C#N)c3)c(CN3C[C@@H](O)C[C@H]3C(=O)O)cc2Cl)c1C [Example 4063, (2S,4S)-1-(5-chloro-2-((5-cyanopyridin-3-yl)methoxy)-4-((3′-(4-((R)-3-hydroxypyrrolidin-1-yl)butyl)-2,2′-dimethyl-[1,1′-biphenyl]-3-yl)methoxy)benzyl)-4-hydroxypyrrolidine-2-carboxylic Acid] | 0.21 to 10 | –
7 | Cc1c(CCCCN2CC[C@@H](O)C2)cccc1-c1cccc(COc2cc(OCc3cncc(C#N)c3)c(CNC(CO)CO)cc2Cl)c1C [Example 4064, (R)-5-((4-chloro-2-(((1,3-dihydroxypropan-2-yl)amino)methyl)-5-((3′-(4-(3-hydroxypyrrolidin-1-yl)butyl)-2,2′-dimethyl-[1,1′-biphenyl]-3-yl)methoxy)phenoxy)methyl)nicotinonitrile] | 0.21 to 10 | –
8 | Cc1c(CCCCN2CC[C@@H](O)C2)cccc1-c1cccc(COc2cc(OCc3cncc(C#N)c3)c(CNC(C)(CO)CO)cc2Cl)c1C [Example 4065, (R)-5-((4-chloro-2-(((1,3-dihydroxy-2-methylpropan-2-yl)amino)methyl)-5-((3′-(4-(3-hydroxypyrrolidin-1-yl)butyl)-2,2′-dimethyl-[1,1′-biphenyl]-3-yl)methoxy)phenoxy)methyl)nicotinonitrile] | 0.21 to 10 | –
9 | Cc1c(CCCCN2CC[C@@H](O)C2)cccc1-c1cccc(COc2cc(OCc3cncc(C#N)c3)c(CNC(CO)(CO)CO)cc2Cl)c1C [Example 4066, (R)-5-((4-chloro-2-(((1,3-dihydroxy-2-(hydroxymethyl)propan-2-yl)amino)methyl)-5-((3′-(4-(3-hydroxypyrrolidin-1-yl)butyl)-2,2′-dimethyl-[1,1′-biphenyl]-3-yl)methoxy)phenoxy)methyl)nicotinonitrile] | 0.21 to 10 | –
10 | Cc1c(CCCCN2CC[C@@H](O)C2)cccc1-c1cccc(COc2cc(OCc3cncc(C#N)c3)c(CN[C@@H](CNC(=O)OC(C)(C)C)C(=O)O)cc2Cl)c1C [Example 4067, (S)-3-((tert-butoxycarbonyl)amino)-2-((5-chloro-2-((5-cyanopyridin-3-yl)methoxy)-4-((3′-(4-((R)-3-hydroxypyrrolidin-1-yl)butyl)-2,2′-dimethyl-[1,1′-biphenyl]-3-yl)methoxy)benzyl)amino)propanoic Acid] | 0.21 to 10 | –
11 | Cc1c(CCCCN2CC[C@@H](O)C2)cccc1-c1cccc(COc2cc(OCc3cncc(C#N)c3)c(CN3CCN(C(=O)OC(C)(C)C)C[C@H]3C(=O)O)cc2Cl)c1C [Example 4068, (S)-4-(tert-butoxycarbonyl)-1-(5-chloro-2-((5-cyanopyridin-3-yl)methoxy)-4-((3′-(4-((R)-3-hydroxypyrrolidin-1-yl)butyl)-2,2′-dimethyl-[1,1′-biphenyl]-3-yl)methoxy)benzyl)piperazine-2-carboxylic Acid] | 0.21 to 10 | –
12 | Cc1c(CCCCN2CC[C@@H](O)C2)cccc1-c1cccc(COc2cc(OCc3cncc(C#N)c3)c(CN[C@@H](CN)C(=O)O)cc2Cl)c1C [Example 4069, (S)-3-amino-2-((5-chloro-2-((5-cyanopyridin-3-yl)methoxy)-4-((3′-(4-((R)-3-hydroxypyrrolidin-1-yl)butyl)-2,2′-dimethyl-[1,1′-biphenyl]-3-yl)methoxy)benzyl)amino)propanoic Acid] | 0.21 to 10 | –
13 | Cc1c(CCCCN2CC[C@@H](O)C2)cccc1-c1cccc(COc2cc(OCc3cncc(C#N)c3)c(CN3CCNC[C@H]3C(=O)O)cc2Cl)c1C [Example 4070, (S)-1-(5-chloro-2-((5-cyanopyridin-3-yl)methoxy)-4-((3′-(4-((R)-3-hydroxypyrrolidin-1-yl)butyl)-2,2′-dimethyl-[1,1′-biphenyl]-3-yl)methoxy)benzyl)piperazine-2-carboxylic Acid] | 0.21 to 10 | –
14 | Cc1c(COc2cc(OCc3cncc(C#N)c3)c(CN3CCCC[C@H]3C(=O)O)cc2Cl)cccc1-c1cccc(CN(C)CCN2CCS(=O)(=O)CC2)c1C [Example 4079, (S)-1-(5-chloro-2-((5-cyanopyridin-3-yl)methoxy)-4-((3′-(((2-(1,1-dioxidothiomorpholino)ethyl)(methyl)amino)methyl)-2,2′-dimethyl-[1,1′-biphenyl]-3-yl)methoxy)benzyl)piperidine-2-carboxylic Acid] | – | 73
15 | Cc1c(COc2cc(OCc3cncc(C#N)c3)c(CNC(CO)CO)cc2Cl)cccc1-c1cccc(CN(C)CCN2CCS(=O)(=O)CC2)c1C [Example 4080, 5-((4-chloro-2-(((1,3-dihydroxypropan-2-yl)amino)methyl)-5-((3′-(((2-(1,1-dioxidothiomorpholino)ethyl)(methyl)amino)methyl)-2,2′-dimethyl-[1,1′-biphenyl]-3-yl)methoxy)phenoxy)methyl)nicotinonitrile] | 0.21 to 10 | –
16 | Cc1c(COc2cc(OCc3cncc(C#N)c3)c(CN[C@@](C)(CO)C(=O)O)cc2Cl)cccc1-c1cccc(CN(C)CCN2CCS(=O)(=O)CC2)c1C [Example 4081, (S)-2-((5-chloro-2-((5-cyanopyridin-3-yl)methoxy)-4-((3′-(((2-(1,1-dioxidothiomorpholino)ethyl)(methyl)amino)methyl)-2,2′-dimethyl-[1,1′-biphenyl]-3-yl)methoxy)benzyl)amino)-3-hydroxy-2-methylpropanoic Acid] | 10 to 100 | –
17 | Cc1c(COc2cc(OCc3cncc(C#N)c3)c(CNC(C)(CO)CO)cc2Cl)cccc1-c1cccc(CN(C)CCN2CCS(=O)(=O)CC2)c1C [Example 4082, 5-((4-chloro-2-(((1,3-dihydroxy-2-methylpropan-2-yl)amino)methyl)-5-((3′-(((2-(1,1-dioxidothiomorpholino)ethyl)(methyl)amino)methyl)-2,2′-dimethyl-[1,1′-biphenyl]-3-yl)methoxy)phenoxy)methyl)nicotinonitrile] | 0.21 to 10 | –
18 | Cc1c(COc2cc(OCc3cncc(C#N)c3)c(CNC(CO)(CO)CO)cc2Cl)cccc1-c1cccc(CN(C)CCN2CCS(=O)(=O)CC2)c1C [Example 4083, 5-((4-chloro-2-(((1,3-dihydroxy-2-(hydroxymethyl)propan-2-yl)amino)methyl)-5-((3′-(((2-(1,1-dioxidothiomorpholino)ethyl)(methyl)amino)methyl)-2,2′-dimethyl-[1,1′-biphenyl]-3-yl)methoxy)phenoxy)methyl)nicotinonitrile] | 0.21 to 10 | –
19 | Cc1c(COc2cc(OCc3cncc(C#N)c3)c(CN(CCO)CCO)cc2Cl)cccc1-c1cccc(CN(C)CCN2CCS(=O)(=O)CC2)c1C [Example 4084, 5-((2-((bis(2-hydroxyethyl)amino)methyl)-4-chloro-5-((3′-(((2-(1,1-dioxidothiomorpholino)ethyl)(methyl)amino)methyl)-2,2′-dimethyl-[1,1′-biphenyl]-3-yl)methoxy)phenoxy)methyl)nicotinonitrile] | 10 to 100 | –
20 | Cc1c(COc2cc(OCc3cncc(C#N)c3)c(CN(CCO)CCCO)cc2Cl)cccc1-c1cccc(CN(C)CCN2CCS(=O)(=O)CC2)c1C [Example 4085, 5-((4-chloro-5-((3′-(((2-(1,1-dioxidothiomorpholino)ethyl)(methyl)amino)methyl)-2,2′-dimethyl-[1,1′-biphenyl]-3-yl)methoxy)-2-(((2-hydroxyethyl)(3-hydroxypropyl)amino)methyl)phenoxy)methyl)nicotinonitrile] | 10 to 100 | –
21 | Cc1cc(OCc2cccc(-c3cccc(OCCCN4CC[C@@H](O)C4)c3C)c2C)cc(OCc2cncc(C#N)c2)c1CN1CCCC[C@H]1C(=O)O [Example 4086, (S)-1-(2-((5-cyanopyridin-3-yl)methoxy)-4-((3′-(3-((R)-3-hydroxypyrrolidin-1-yl)propoxy)-2,2′-dimethyl-[1,1′-biphenyl]-3-yl)methoxy)-6-methylbenzyl)piperidine-2-carboxylic Acid] | 0.21 to 10 | –
